Data reported in ChEMBL document CHEMBL5505996, “Discovery of novel osthole derivatives exerting anti-inflammatory effect on DSS-induced ulcerative colitis and LPS-induced acute lung injury in mice” (Eur J Med Chem, 2024).
Converted amounts (≈) assume the structure as drawn. The source made the active and inactive calls. The calls are words filed in the database; no cut-off is given here.

Key:
J774.A1 [1] = test: Antiinflammatory activity against LPS-induced mouse J774.A1 cells assessed as inhibition of IL-6 release at 10 uM pretreated for 30 mins followed by LPS stimulation and measured after 24 hrs by ELISA relative to control; type: functional; settings: time 24.5 hrs
J774.A1 [2] = test: Cytotoxicity against mouse J774.A1 cells assessed as reduction in cell proliferation at 10 uM measured after 24 hrs by CCK-8 assay; type: toxicity, cell-based; settings: j774.a1, 24 h
[3] = Aqueous solubility of compound in phosphate buffer at pH 7.4 measured after 24 hrs by HPLC analysis; type: physicochemical
J774.A1 [4] = test: Antiinflammatory activity against LPS-induced mouse J774.A1 cells assessed as inhibition of TNF-alpha release pretreated for 30 mins followed by LPS stimulation and measured after 24 hrs by ELISA; type: functional, cell-based
THP-1 [5] = test: Antiinflammatory activity against LPS-induced PMA-differentiated human THP-1 cells assessed as inhibition of IL-6 release pretreated for 30 mins followed by LPS stimulation and measured after 24 hrs by ELISA; type: functional, cell-based
THP-1 [6] = test: Antiinflammatory activity against LPS-induced PMA-differentiated human THP-1 cells assessed as inhibition of TNF-alpha release pretreated for 30 mins followed by LPS stimulation and measured after 24 hrs by ELISA; type: functional, cell-based
RAW264.7 [7] = test: Antiinflammatory activity against LPS-induced mouse RAW264.7 cells assessed as inhibition of IL-6 release pretreated for 30 mins followed by LPS stimulation and measured after 24 hrs by ELISA; type: functional, cell-based
RAW264.7 [8] = test: Antiinflammatory activity against LPS-induced mouse RAW264.7 cells assessed as inhibition of TNF-alpha release pretreated for 30 mins followed by LPS stimulation and measured after 24 hrs by ELISA; type: functional, cell-based
RAW264.7 [9] = test: Potency index, ratio of osthole IC50 to test compound IC50 for antiinflammatory activity against LPS-induced mouse RAW264.7 cells assessed as inhibition of IL-6 release pretreated for 30 mins followed by LPS stimulation and measured after 24 hrs by ELISA; type: functional; settings: time 24.5 hrs
RAW264.7 [10] = test: Potency index, ratio of osthole IC50 to test compound IC50 for antiinflammatory activity against LPS-induced mouse RAW264.7 cells assessed as inhibition of TNF-alpha release pretreated for 30 mins followed by LPS stimulation and measured after 24 hrs by ELISA; type: functional; settings: time 24.5 hrs
[11] = Tmax in male Sprague-Dawley rat at 10 mg/kg, po by UPLC-MS/MS analysis; type: ADME, organism-based; settings: in vivo
[12] = Acute toxicity in ICR mouse assessed as reduction in body weight at 500 mg/kg, po measured daily for 10 days; type: organism-based; settings: in vivo, 240 h, time 10 day
[13] = Acute toxicity in ICR mouse assessed as effect on physiological status at 500 mg/kg, po measured daily for 10 days; type: organism-based; settings: in vivo, 240 h, time 10 day
[14] = Acute toxicity in ICR mouse assessed as pathological changes in heart at 500 mg/kg, po measured daily for 10 days by H and E staining based analysis; type: organism-based; settings: in vivo, 240 h, time 10 day
[15] = Acute toxicity in ICR mouse assessed as pathological changes in liver at 500 mg/kg, po measured daily for 10 days by H and E staining based analysis; type: organism-based; settings: in vivo, 240 h, time 10 day
[16] = Acute toxicity in ICR mouse assessed as pathological changes in spleen at 500 mg/kg, po measured daily for 10 days by H and E staining based analysis; type: organism-based; settings: in vivo, 240 h, time 10 day
J774.A1 [17] = test: Inhibition of NFkappaB signaling pathway in LPS-induced mouse J774.A1 cells assessed as reduction in p65 phosphorylation pretreated for 2 hrs followed by LPS stimulation and measured after 30 mins by Western blot analysis; type: cell-based; settings: time 2.5 hrs
[18] = biological target: Interleukin-1 receptor-associated kinase 1 (Homo sapiens) (UniProt P51617); test: Inhibition of IRAK1 (unknown origin) at 10 uM relative to control
Mus musculus [19] = test: Antiinflammatory activity against C57BL/6 mouse model of DSS induced ulcerative colitis assessed as reversal of weight loss at 20 mg/kg, po administered daily for 10 days; type: functional, organism-based; settings: time 10.0 day
Mus musculus [20] = test: Antiinflammatory activity against C57BL/6 mouse model of DSS induced ulcerative colitis assessed as reversal of splenomegaly at 20 mg/kg, po administered daily for 10 days; type: functional, organism-based; settings: time 10.0 day
Mus musculus [21] = test: Antiinflammatory activity against C57BL/6 mouse model of DSS induced ulcerative colitis assessed as protection against mucosal damage at 20 mg/kg, po administered daily for 10 days by H and E staining based analysis; type: functional, organism-based; settings: time 10.0 day
Mus musculus [22] = test: Antiinflammatory activity against C57BL/6 mouse model of DSS induced ulcerative colitis assessed as reduction in inflammatory cytokines infiltration in intestine at 20 mg/kg, po administered daily for 10 days by immunohistochemical staining based analysis; type: functional, organism-based; settings: time 10.0 day
Mus musculus [23] = test: Antiinflammatory activity against C57BL/6 mouse model of LPS induced acute lung injury assessed as reduction in pulmonary edema by measuring reduction in lung wet/dry ratio at 20 mg/kg, po administered every 12 hrs for 3 times followed by LPS stimulation for 6 hrs starting from 30 mins post last dose; type: functional, organism-based; settings: time 42.5 hrs
Mus musculus [24] = test: Antiinflammatory activity against C57BL/6 mouse model of LPS induced acute lung injury assessed as reduction in total number of cells in BALF at 20 mg/kg, po administered every 12 hrs for 3 times followed by LPS stimulation for 6 hrs starting from 30 mins post last dose; type: functional, organism-based; settings: time 42.5 hrs
Mus musculus [25] = test: Antiinflammatory activity against C57BL/6 mouse model of LPS induced acute lung injury assessed as reduction in IL-6 level in BALF at 20 mg/kg, po administered every 12 hrs for 3 times followed by LPS stimulation for 6 hrs starting from 30 mins post last dose by ELISA; type: functional, organism-based; settings: time 42.5 hrs
Mus musculus [26] = test: Antiinflammatory activity against C57BL/6 mouse model of LPS induced acute lung injury assessed as reduction in IL-6 level in serum at 20 mg/kg, po administered every 12 hrs for 3 times followed by LPS stimulation for 6 hrs starting from 30 mins post last dose by ELISA; type: functional, organism-based; settings: time 42.5 hrs
Mus musculus [27] = test: Antiinflammatory activity against C57BL/6 mouse model of LPS induced acute lung injury assessed as reduction in interstitial edema at 20 mg/kg, po administered every 12 hrs for 3 times followed by LPS stimulation for 6 hrs starting from 30 mins post last dose by H and E staining based analysis; type: functional, organism-based; settings: time 42.5 hrs
Mus musculus [28] = test: Antiinflammatory activity against C57BL/6 mouse model of LPS induced acute lung injury assessed as reduction in IL-6 level in lung at 20 mg/kg, po administered every 12 hrs for 3 times followed by LPS stimulation for 6 hrs starting from 30 mins post last dose by immunohistochemical staining based analysis; type: functional, organism-based; settings: time 42.5 hrs
Mus musculus [29] = test: Antiinflammatory activity against C57BL/6 mouse model of LPS induced acute lung injury assessed as reduction in IL-6 mRNA expression in lung at 20 mg/kg, po administered every 12 hrs for 3 times followed by LPS stimulation for 6 hrs starting from 30 mins post last dose by RT-qPCR analysis; type: functional, organism-based; settings: time 42.5 hrs
Mus musculus [30] = test: Antiinflammatory activity against C57BL/6 mouse model of LPS induced acute lung injury assessed as reduction in TNF-alpha mRNA expression in lung at 20 mg/kg, po administered every 12 hrs for 3 times followed by LPS stimulation for 6 hrs starting from 30 mins post last dose by RT-qPCR analysis; type: functional, organism-based; settings: time 42.5 hrs
[31] = biological target: Mitogen-activated protein kinase kinase kinase 7 (Homo sapiens) (UniProt O43318); test: Inhibition of TAK1 (unknown origin) at 10 uM relative to control
Mitogen-activated protein kinase kinase kinase 7 (Homo sapiens), sequence (O43318 whole entry, looked up): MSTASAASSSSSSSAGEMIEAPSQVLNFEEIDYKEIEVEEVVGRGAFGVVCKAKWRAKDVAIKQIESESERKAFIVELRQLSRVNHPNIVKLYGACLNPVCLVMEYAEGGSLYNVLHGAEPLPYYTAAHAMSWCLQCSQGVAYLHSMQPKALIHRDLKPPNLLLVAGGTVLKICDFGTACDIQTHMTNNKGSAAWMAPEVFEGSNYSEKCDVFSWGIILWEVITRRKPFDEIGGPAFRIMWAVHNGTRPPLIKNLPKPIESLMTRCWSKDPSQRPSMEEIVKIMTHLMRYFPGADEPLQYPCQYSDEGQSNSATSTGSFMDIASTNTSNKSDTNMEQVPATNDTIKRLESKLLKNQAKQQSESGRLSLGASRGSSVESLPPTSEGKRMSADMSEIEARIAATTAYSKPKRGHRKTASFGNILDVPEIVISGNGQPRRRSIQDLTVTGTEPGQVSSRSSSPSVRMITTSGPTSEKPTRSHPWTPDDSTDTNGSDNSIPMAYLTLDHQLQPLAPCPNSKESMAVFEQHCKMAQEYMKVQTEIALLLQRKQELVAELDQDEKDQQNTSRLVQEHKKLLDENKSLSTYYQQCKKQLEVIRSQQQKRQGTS

Interleukin-1 receptor-associated kinase 1 (Homo sapiens), sequence (P51617 whole entry, looked up): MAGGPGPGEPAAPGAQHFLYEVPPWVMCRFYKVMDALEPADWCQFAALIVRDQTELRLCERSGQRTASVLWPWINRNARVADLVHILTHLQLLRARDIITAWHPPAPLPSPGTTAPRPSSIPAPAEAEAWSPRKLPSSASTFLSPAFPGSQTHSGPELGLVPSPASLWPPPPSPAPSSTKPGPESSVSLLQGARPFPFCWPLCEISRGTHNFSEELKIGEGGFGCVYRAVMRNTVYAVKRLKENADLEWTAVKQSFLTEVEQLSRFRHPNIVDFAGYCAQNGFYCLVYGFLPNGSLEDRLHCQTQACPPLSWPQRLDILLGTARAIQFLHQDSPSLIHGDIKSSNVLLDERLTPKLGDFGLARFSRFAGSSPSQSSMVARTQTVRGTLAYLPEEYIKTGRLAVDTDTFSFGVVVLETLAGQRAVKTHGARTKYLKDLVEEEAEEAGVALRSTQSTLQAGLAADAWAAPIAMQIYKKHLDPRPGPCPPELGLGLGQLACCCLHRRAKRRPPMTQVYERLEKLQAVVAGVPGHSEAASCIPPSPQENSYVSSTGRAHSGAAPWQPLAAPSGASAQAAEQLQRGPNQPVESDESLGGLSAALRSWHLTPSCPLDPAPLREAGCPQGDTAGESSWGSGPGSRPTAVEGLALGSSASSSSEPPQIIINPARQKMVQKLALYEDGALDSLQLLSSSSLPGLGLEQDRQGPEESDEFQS

CC(C)=CCc1c(OCCCCNCCN2CCOCC2)ccc2ccc(=O)oc12
inhibition at 10 µM (J774.A1 [1]): 95%
Activity (J774.A1 [2]): Non-Toxic
solubility at 24 h [3]: 340 µg/mL (≈ 820 µM)
IC50 (J774.A1 [4]): 18.1 µM
IC50 (THP-1 [5]): 10.6 µM
IC50 (THP-1 [6]): 27.4 µM
IC50 (RAW264.7 [7]): 4.57 µM
IC50 (RAW264.7 [8]): 29.7 µM
Ratio IC50 (RAW264.7 [9]): 32
Ratio IC50 (RAW264.7 [10]): 3.8
Tmax [11]: 3.33 h
Activity [12]: Non-Toxic
Activity [13]: Non-Toxic
Activity [14]: Non-Toxic
Activity [15]: Non-Toxic
Activity [16]: Non-Toxic
inhibition (J774.A1 [17]): inactive
inhibition [18]: 10.3%
Activity (Mus musculus [19]): Active
Activity (Mus musculus [20]): Active
Activity (Mus musculus [21]): Active
Activity (Mus musculus [22]): Active
Activity (Mus musculus [23]): Active
Activity (Mus musculus [24]): Active
Activity (Mus musculus [25]): Active
Activity (Mus musculus [26]): Active
Activity (Mus musculus [27]): Active
Activity (Mus musculus [28]): Active
Activity (Mus musculus [29]): Active
Activity (Mus musculus [30]): Active
inhibition [31]: 5.23%
